Laboratory results as given in patent publication US20250215030A1, “STAT MODULATORS AND USES THEREOF” (Recludix Pharma, Inc., priority 2022, published 2025).

Key:
[1] = biological target: T1, Recombinant STAT3 protein (STAT3(G127-I722)) (Homo sapiens, UniProt P40763); experiment: STAT3 Fluorescence Polarization (FP) Assay; type: binding; conditions: STAT3(G127-I722) 25 nM, probe 5-FAM-GpYLPQTV-NH2 2 nM, 45-minute incubation
T1 construct: STAT3(G127-I722)
Summary of the method: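 STAT3(G127-I722) at 25 nM and 5-FAM-GpYLPQTV-NH2 probe at 2 nM in HEPES pH 7.4 buffer with NaCl, EDTA, Tween 20, DTT; 1% DMSO. FP read after 45 min at room temperature; IC50 by nonlinear regression of mP vs log concentration, binned A ≤100 nM to D >10 μM.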

[2] = biological target: T2, Recombinant STAT6 protein (STAT6(W123-T658)) (Homo sapiens, UniProt P42226); experiment: STAT6 Fluorescence Polarization (FP) Assay; type: binding; conditions: STAT6(W123-T658) 250 nM, probe 5-FAM-ApYKPFQDLI-NH2 2 nM, 45-minute incubation
T2 construct: STAT6(W123-T658)
T2 sequence (P42226 123-658): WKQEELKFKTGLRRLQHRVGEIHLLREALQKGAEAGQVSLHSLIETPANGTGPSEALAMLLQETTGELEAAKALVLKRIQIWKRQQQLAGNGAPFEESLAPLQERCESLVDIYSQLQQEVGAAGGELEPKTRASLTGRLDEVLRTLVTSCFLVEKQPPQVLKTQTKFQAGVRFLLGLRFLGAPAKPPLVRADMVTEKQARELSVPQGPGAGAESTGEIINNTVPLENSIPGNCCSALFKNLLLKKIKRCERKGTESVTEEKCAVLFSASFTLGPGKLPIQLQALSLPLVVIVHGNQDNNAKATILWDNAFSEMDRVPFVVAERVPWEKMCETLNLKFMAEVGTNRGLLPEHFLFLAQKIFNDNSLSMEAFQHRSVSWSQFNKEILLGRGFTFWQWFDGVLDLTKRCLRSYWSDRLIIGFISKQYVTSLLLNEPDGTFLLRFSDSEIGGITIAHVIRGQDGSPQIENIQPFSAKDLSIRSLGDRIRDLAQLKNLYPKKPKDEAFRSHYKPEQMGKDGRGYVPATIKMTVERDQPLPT
Summary of the method: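 STAT6 (W123-T658) at 250 nM mixed with 2 nM 5-FAM-ApYKPFQDLI-NH2 probe in HEPES pH 7.4 buffer with DTT and Tween 20, 1% DMSO final. Polarization read after 45 min at room temperature; IC50 by nonlinear regression of mP versus log concentration, reported in bins A–D.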

T1 sequence (P40763 127-722, species assumed): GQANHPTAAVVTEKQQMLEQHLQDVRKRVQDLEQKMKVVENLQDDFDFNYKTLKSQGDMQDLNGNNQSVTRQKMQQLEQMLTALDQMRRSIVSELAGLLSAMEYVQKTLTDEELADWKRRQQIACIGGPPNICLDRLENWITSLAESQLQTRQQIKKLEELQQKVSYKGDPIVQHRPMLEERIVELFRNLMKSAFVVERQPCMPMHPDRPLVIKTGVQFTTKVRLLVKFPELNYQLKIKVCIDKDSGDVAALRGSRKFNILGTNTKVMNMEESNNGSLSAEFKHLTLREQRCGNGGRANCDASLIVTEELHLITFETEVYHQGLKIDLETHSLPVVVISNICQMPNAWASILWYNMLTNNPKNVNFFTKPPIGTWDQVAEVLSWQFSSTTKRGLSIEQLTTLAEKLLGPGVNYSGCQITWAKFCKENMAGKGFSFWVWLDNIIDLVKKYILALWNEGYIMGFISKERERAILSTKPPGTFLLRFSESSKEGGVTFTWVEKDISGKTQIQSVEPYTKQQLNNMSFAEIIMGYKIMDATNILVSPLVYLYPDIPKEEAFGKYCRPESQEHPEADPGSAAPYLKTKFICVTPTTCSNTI

IC50 [1] [nM] | IC50 [2] [nM] | Compound
100 to 1000 | 3000 to 30000 | O=C(N[C@H]1C[C@@H]2C[C@@H]2C[C@H]2CC[C@@H](C(=O)NC3CN([C@@H]4CCOC4)C3)N2C1=O)c1cc2cc(C(F)(F)P(=O)(O)O)ccc2s1 [Compound 53, (difluoro(2-(((3S,6S,7aS,8aR,9aR)-5-oxo-3-((1-((R)-tetrahydrofuran-3-yl)azetidin-3-yl)carbamoyl)decahydro-1H-cyclopropa[d]pyrrolo[1,2-a]azocin-6-yl)carbamoyl)benzo[b]thiophen-5-yl)methyl)phosphonic acid]
< 100 | 300 to 3000 | O=C(N[C@H]1C[C@H]2C[C@H]2C[C@H]2CC[C@@H](C(=O)N3CC(c4c[nH]cn4)C3)N2C1=O)c1cc2cc(C(F)(F)P(=O)(O)O)ccc2s1 [Compound 54, ((2-(((3S,6S,7aR,8aS,9aR)-3-(3-(1H-imidazol-4-yl)azetidine-1-carbonyl)-5-oxodecahydro-1H-cyclopropa[d]pyrrolo[1,2-a]azocin-6-yl)carbamoyl)benzo[b]thiophen-5-yl)difluoromethyl)phosphonic acid]
< 100 | 3000 to 30000 | Cc1ncccc1C1CN(C(=O)[C@@H]2CC[C@@H]3C[C@@H]4C[C@@H]4C[C@H](NC(=O)c4cc5cc(C(F)(F)P(=O)(O)O)ccc5s4)C(=O)N32)C1 [Compound 55, (difluoro(2-(((3S,6S,7aR,8aS,9aR)-3-(3-(2-methylpyridin-3-yl)azetidine-1-carbonyl)-5-oxodecahydro-1H-cyclopropa[d]pyrrolo[1,2-a]azocin-6-yl)carbamoyl)benzo[b]thiophen-5-yl)methyl)phosphonic acid]
< 100 | 300 to 3000 | Cc1ccncc1C1CN(C(=O)[C@@H]2CC[C@@H]3C[C@@H]4C[C@@H]4C[C@H](NC(=O)c4cc5cc(C(F)(F)P(=O)(O)O)ccc5s4)C(=O)N32)C1 [Compound 56, (difluoro(2-(((3S,6S,7aR,8aS,9aR)-3-(3-(4-methylpyridin-3-yl)azetidine-1-carbonyl)-5-oxodecahydro-1H-cyclopropa[d]pyrrolo[1,2-a]azocin-6-yl)carbamoyl)benzo[b]thiophen-5-yl)methyl)phosphonic acid]
100 to 1000 | 3000 to 30000 | O=C(N[C@H]1C[C@@H]2C[C@@H]2C[C@H]2CC[C@@H](C(=O)NC3CN([C@H]4CCOC4)C3)N2C1=O)c1cc2cc(C(F)(F)P(=O)(O)O)ccc2s1 [Compound 57, (difluoro(2-(((3S,6S,7aS,8aR,9aR)-5-oxo-3-((1-((S)-tetrahydrofuran-3-yl)azetidin-3-yl)carbamoyl)decahydro-1H-cyclopropa[d]pyrrolo[1,2-a]azocin-6-yl)carbamoyl)benzo[b]thiophen-5-yl)methyl)phosphonic acid]
< 100 | 3000 to 30000 | Cc1cccnc1C1CN(C(=O)[C@@H]2CC[C@@H]3C[C@@H]4C[C@@H]4C[C@H](NC(=O)c4cc5cc(C(F)(F)P(=O)(O)O)ccc5s4)C(=O)N32)C1 [Compound 58, (difluoro(2-(((3S,6S,7aR,8aS,9aR)-3-(3-(3-methylpyridin-2-yl)azetidine-1-carbonyl)-5-oxodecahydro-1H-cyclopropa[d]pyrrolo[1,2-a]azocin-6-yl)carbamoyl)benzo[b]thiophen-5-yl)methyl)phosphonic acid]
< 100 | 3000 to 30000 | O=C(N[C@H]1C[C@H]2C[C@H]2C[C@H]2CC[C@@H](C(=O)N3CC(n4ccnc4)C3)N2C1=O)c1ccc2ccc(C(F)(F)P(=O)(O)O)cc2c1 [Compound 59, ((7-(((3S,6S,7aR,8aS,9aR)-3-(3-(1H-imidazol-1-yl)azetidine-1-carbonyl)-5-oxodecahydro-1H-cyclopropa[d]pyrrolo[1,2-a]azocin-6-yl)carbamoyl)naphthalen-2-yl)difluoromethyl)phosphonic acid]
< 100 | 300 to 3000 | Cc1cccc(C2CN(C(=O)[C@@H]3CC[C@@H]4C[C@@H]5C[C@@H]5C[C@H](NC(=O)c5cc6cc(C(F)(F)P(=O)(O)O)ccc6s5)C(=O)N43)C2)n1 [Compound 60, (difluoro(2-(((3S,6S,7aR,8aS,9aR)-3-(3-(6-methylpyridin-2-yl)azetidine-1-carbonyl)-5-oxodecahydro-1H-cyclopropa[d]pyrrolo[1,2-a]azocin-6-yl)carbamoyl)benzo[b]thiophen-5-yl)methyl)phosphonic acid]
< 100 | 3000 to 30000 | O=C(N[C@H]1C[C@@H]2C[C@@H]2C[C@H]2CC[C@@H](C(=O)N3CC(c4cncnc4)C3)N2C1=O)c1cc2cc(C(F)(F)P(=O)(O)O)ccc2s1 [Compound 61, (difluoro(2-(((3S,6S,7aS,8aR,9aR)-5-oxo-3-(3-(pyrimidin-5-yl)azetidine-1-carbonyl)decahydro-1H-cyclopropa[d]pyrrolo[1,2-a]azocin-6-yl)carbamoyl)benzo[b]thiophen-5-yl)methyl)phosphonic acid]
< 100 | 300 to 3000 | N#Cc1ccc(C2(F)CN(C(=O)[C@@H]3CC[C@@H]4C[C@H]5C[C@H]5C[C@H](NC(=O)c5cc6cc(C(F)(F)P(=O)(O)O)ccc6s5)C(=O)N43)C2)cc1 [Compound 62, ((2-(((3S,6S,7aS,8aR,9aR)-3-(3-(4-cyanophenyl)-3-fluoroazetidine-1-carbonyl)-5-oxodecahydro-1H-cyclopropa[d]pyrrolo[1,2-a]azocin-6-yl)carbamoyl)benzo[b]thiophen-5-yl)difluoromethyl)phosphonic acid]
< 100 | 3000 to 30000 | O=C(N[C@H]1C[C@H]2C[C@H]2C[C@H]2CC[C@@H](C(=O)NC3CN(C(=O)CCC(F)(F)F)C3)N2C1=O)c1cc2cc(C(F)(F)P(=O)(O)O)ccc2s1 [Compound 63, (difluoro(2-(((3S,6S,7aR,8aS,9aR)-5-oxo-3-((1-(4,4,4-trifluorobutanoyl)azetidin-3-yl)carbamoyl)decahydro-1H-cyclopropa[d]pyrrolo[1,2-a]azocin-6-yl)carbamoyl)benzo[b]thiophen-5-yl)methyl)phosphonic acid]
< 100 | 300 to 3000 | O=C(N[C@H]1C[C@@H]2C[C@@H]2C[C@H]2CC[C@@H](C(=O)N3CC(F)(c4ccccc4)C3)N2C1=O)c1cc2cc(C(F)(F)P(=O)(O)O)ccc2s1 [Compound 64, (difluoro(2-(((3S,6S,7aS,8aR,9aR)-3-(3-fluoro-3-phenylazetidine-1-carbonyl)-5-oxodecahydro-1H-cyclopropa[d]pyrrolo[1,2-a]azocin-6-yl)carbamoyl)benzo[b]thiophen-5-yl)methyl)phosphonic acid]
< 100 | 3000 to 30000 | O=C(N[C@H]1C[C@@H]2C[C@@H]2C[C@H]2CC[C@@H](C(=O)N3CC(c4ncccn4)C3)N2C1=O)c1cc2cc(C(F)(F)P(=O)(O)O)ccc2s1 [Compound 65, (difluoro(2-(((3S,6S,7aS,8aR,9aR)-5-oxo-3-(3-(pyrimidin-2-yl)azetidine-1-carbonyl)decahydro-1H-cyclopropa[d]pyrrolo[1,2-a]azocin-6-yl)carbamoyl)benzo[b]thiophen-5-yl)methyl)phosphonic acid]
< 100 | 300 to 3000 | O=C(N[C@H]1C[C@@H]2C[C@@H]2[C@H]2CC[C@@H](C(=O)N3CC(c4cccnc4)C3)N2C1=O)c1cc2cc(C(F)(F)P(=O)(O)O)ccc2s1 [Compound 67, (difluoro(2-(((3S,6S,7aS,8aS,8bR)-5-oxo-3-(3-(pyridin-3-yl)azetidine-1-carbonyl)decahydrocyclopropa[c]pyrrolo[1,2-a]azepin-6-yl)carbamoyl)benzo[b]thiophen-5-yl)methyl)phosphonic acid]
< 100 | 300 to 3000 | Cc1cccc(C2CN(C(=O)[C@@H]3CC[C@@H]4C[C@@H]5C[C@@H]5C[C@H](NC(=O)c5cc6cc(C(F)(F)P(=O)(O)O)ccc6s5)C(=O)N43)C2)c1 [Compound 68, (difluoro(2-(((3S,6S,7aR,8aS,9aR)-5-oxo-3-(3-(m-tolyl)azetidine-1-carbonyl)decahydro-1H-cyclopropa[d]pyrrolo[1,2-a]azocin-6-yl)carbamoyl)benzo[b]thiophen-5-yl)methyl)phosphonic acid]
< 100 | 3000 to 30000 | CS(=O)(=O)CC1CN(C(=O)[C@@H]2CC[C@@H]3C[C@@H]4C[C@@H]4C[C@H](NC(=O)c4cc5cc(C(F)(F)P(=O)(O)O)ccc5s4)C(=O)N32)C1 [Compound 69, (difluoro(2-(((3S,6S,7aR,8aS,9aR)-3-(3-((methylsulfonyl)methyl)azetidine-1-carbonyl)-5-oxodecahydro-1H-cyclopropa[d]pyrrolo[1,2-a]azocin-6-yl)carbamoyl)benzo[b]thiophen-5-yl)methyl)phosphonic acid]
